Results on 26 molecules are retold here after patent publication US10703757B2, “Compounds and methods for CDK8 modulation and indications therefor” (Plexxikon Inc., priority 2016, dated 2020).

The structures appear in SMILES notation.

This test deals with CDK8 (phosphorylation of STAT1 at serine 727 in A549 cells). The test can be described thus: Cell based Phospho-STAT1 assay (IFNγ-stimulated A549 cells, AlphaLISA). The settings on record: Homo sapiens, A549, A549 cells, phospho-STAT1 after IFNγ stimulation. Here is the method:
Determine Inhibitor Activity Against CDK8 in Cell Based Phospho-STAT1 Assay
This assay measures the phosphorylation of the CDK8 substrate STAT1 following Interferon-gamma (IFNγ) stimulation^1. The lung carcinoma cell line A549 is seeded in a 96 well plate in 50 μL of culture media at 5×10^4 cells/well and incubated at 37° C. overnight. Serial dilutions of compounds (in total volume of 50 μL culture media) are added to the cells and incubated at 37° C. for one hour. Human IFNγ (R&D Systems) is added to the cells at a 10 ng/mL final concentration. 4 wells containing DMSO treated cells stimulated with IFNγ serve as high controls and 4 wells containing DMSO treated unstimulated cells serve as low controls. After 30 minute IFNγ stimulation at 37° C., the culture media is removed and 50 μL of 1×AlphaLISA lysis buffer (PerkinElmer GA, USA) is added to each well. 5 μL cell lysate is transferred to a 384 well AlphaPlate (PerkinElmer GA, USA) and 5 μL containing 0.156 nM Phospho-STAT1 (Ser727) rabbit monoclonal antibody (Cell Signaling Technology), 0.156 nM Mouse Anti-STAT1 antibody (BD Transduction Laboratories), and 10 μg/mL Anti-rabbit IgG AlphaLISA acceptor beads (PerkinElmer GA, USA) diluted in 1× AlphaLISA immunoassay buffer (PerkinElmer GA, USA) is added to the cell lysates and incubated at room temperature for 90 minutes. 5 μL Anti-Mouse IgG Alpha donor beads diluted in 1× AlphaLISA immunoassay buffer (PerkinElmer GA, USA) is added to the reaction mixture and incubated at room temperature for 90 minutes. Upon excitation of these beads with laser light at 680 nm, singlet oxygen is produced. This singlet oxygen is rapidly quenched, unless the AlphaLISA Anti-Rabbit IgG acceptor beads are in close proximity, in which case a proximity signal can be measured at […]. In the presence of cellular CDK8 catalytic activity, there is a very strong proximity signal. Selective CDK8 inhibitors affect a decrease in this proximity signal through a decrease in phosphorylation of STAT1 at serine 727. The percentage inhibition at individual concentrations relative to high and low controls is calculated. The data are analyzed by using nonlinear regression to generate IC50 values.
(Alpha assays give light when donor and acceptor beads are brought close together.)
What is called IC50 is the concentration at which inhibition is half-maximal. Read a low IC50 as higher potency. `Cn1ncc2cc(-c3cnc4[nH]ccc4c3C#CC(C)(C)O)ccc21` [Compound P-0343, 2-methyl-4-(5-(1-methyl-1H-indazol-5-yl)-1H-pyrrolo[2,3-b]pyridin-4-yl)but-3-yn-2-ol]: the IC50 lay within 100 to 1000 nM.

`Cn1cc(-c2ccc(-c3cnc4cccc(N5CCC(C)(O)CC5)n34)cc2)cn1` [Compound P-0396, 4-methyl-1-(3-(4-(1-methyl-1H-pyrazol-4-yl)phenyl)imidazo[1,2-a]pyridin-5-yl)piperidin-4-ol] returned a concentration for half-maximal inhibition (IC50) of 100 to 1000 nM. The molecule `O=C(NCc1ccc(-c2cnc3cccc(N4CCC5(CCNC5=O)CC4)n23)cc1)c1cccnc1` [Compound P-0449, N-(4-(5-(1-oxo-2,8-diazaspiro[4.5]decan-8-yl)imidazo[1,2-a]pyridin-3-yl)benzyl)nicotinamide] came in with a concentration for half-maximal inhibition (IC50) of 1000 to 10000 nM. For `NC(=O)C1CC=C(c2cccc3ncc(-c4ccc(OCCN5CCCCC5)cc4)n23)CC1` (centres unmarked) [Compound P-0369, 4-(3-(4-(2-(piperidin-1-yl)ethoxy)phenyl)imidazo[1,2-a]pyridin-5-yl)cyclohex-3-ene-1-carboxamide], the IC50 lay within 1000 to 10000 nM. Next, `COC(=O)CC1CCN(c2cccc3ncc(C#Cc4cnn(C)c4)n23)CC1` [Compound P-0312, methyl 2-(1-(3-((1-methyl-1H-pyrazol-4-yl)ethynyl)imidazo[1,2-a]pyridin-5-yl)piperidin-4-yl)acetate]: 1000 to 10000 nM. `FC(F)n1cc(-c2ccc(-c3cccn4ncc(-c5ccc(-c6cnn(C(F)F)c6)cc5)c34)cc2)cn1` [Compound P-0371, 3,4-bis(4-(1-(difluoromethyl)-1H-pyrazol-4-yl)phenyl)pyrazolo[1,5-a]pyridine]: the concentration for half-maximal inhibition (IC50) was in the range of 1000 to 10000 nM. The molecule `Cn1ncc2ccc(-c3cnc4[nH]ccc4c3C3=CCC(C#N)CC3)cc21` (centres unmarked) [Compound P-0340, 4-(5-(1-methyl-1H-indazol-6-yl)-1H-pyrrolo[2,3-b]pyridin-4-yl)cyclohex-3-ene-1-carbonitrile] gave an IC50 of 0.1 to 100 nM. With `N#CC1CCC(c2cccn3ncc(-c4ccc(-c5cnn(C(F)F)c5)cc4)c23)CC1` (centres unmarked) [Compound P-0346, 4-(3-(4-(1-(difluoromethyl)-1H-pyrazol-4-yl)phenyl)pyrazolo[1,5-a]pyridin-4-yl)cyclohexane-1-carbonitrile], the IC50 lay within 100 to 1000 nM. `Cn1cc(-c2ccc(-c3cnc4cccc(NCc5cccnc5)n34)cc2)cn1` [Compound P-0377, 3-(4-(1-methyl-1H-pyrazol-4-yl)phenyl)-N-(pyridin-3-ylmethyl)imidazo[1,2-a]pyridin-5-amine]: the 50% inhibitory concentration (IC50) is 1000 to 10000 nM. Molecule `Cn1ncc2cc(-c3cnn4ccnc(N5CCC(C#N)CC5)c34)ccc21` [Compound P-0326, 1-[3-(1-methylindazol-5-yl)pyrazolo[1,5-a]pyrazin-4-yl]piperidine-4-carbonitrile] gave an IC50 of 1000 to 10000 nM.

The molecule `CN1CCN(C(=O)c2ccc3cc(-c4cnn5cccc(C6=CCC(C#N)CC6)c45)ccc3c2)CC1` (centres unmarked) [Compound P-0356, 4-(3-(6-(4-methylpiperazine-1-carbonyl)naphthalen-2-yl)pyrazolo[1,5-a]pyridin-4-yl)cyclohex-3-ene-1-carbonitrile] registered an IC50 of 0.1 to 100 nM. In turn, `CN1CCN(c2cccc3ncc(-c4ccc(-c5cnn(C)c5)cc4)n23)CC1` [Compound P-0394, 3-(4-(1-methyl-1H-pyrazol-4-yl)phenyl)-5-(4-methylpiperazin-1-yl)imidazo[1,2-a]pyridine] came in with a half-maximal inhibitory concentration (IC50) of 100 to 1000 nM. For `Cn1cncc1C#Cc1cnc2cccc(N3CCC4(CC3)C(=O)Nc3ccccc34)n12` [Compound P-0376, 1′-[3-[2-(3-methylimidazol-4-yl)ethynyl]imidazo[1,2-a]pyridin-5-yl]spiro[indoline-3,4′-piperidine]-2-one], the IC50 was 100 to 1000 nM. `Cn1cc(-c2ccc(-c3cnn4cccc(C#CC5(O)CCNCC5)c34)cc2)cn1` [Compound P-0338, 4-((3-(4-(1-methyl-1H-pyrazol-4-yl)phenyl)pyrazolo[1,5-a]pyridin-4-yl)ethynyl)piperidin-4-ol]: the IC50 fell in the range of 100 to 1000 nM. `CC1(C#N)CCN(c2cccn3ncc(-c4ccc(-c5cnn(C(F)F)c5)cc4)c23)CC1` [Compound P-0404, 1-[3-[4-[1-(difluoromethyl)pyrazol-4-yl]phenyl]pyrazolo[1,5-a]pyridin-4-yl]-4-methyl-piperidine-4-carbonitrile] returned an IC50 of 0.1 to 100 nM. Next, `Cn1cc(-c2ccc(-c3cnn4cccc(C5=CCS(=O)(=O)CC5)c34)cc2)cn1` [Compound P-0300, 4-(3-(4-(1-methyl-1H-pyrazol-4-yl)phenyl)pyrazolo[1,5-a]pyridin-4-yl)-3,6-dihydro-2H-thiopyran 1,1-dioxide]: 100 to 1000 nM. Next, `Cn1cc(-c2ccc(-c3cnn4cccc(-c5cn[nH]c5)c34)cc2)cn1` [Compound P-0430, 3-(4-(1-methyl-1H-pyrazol-4-yl)phenyl)-4-(1H-pyrazol-4-yl)pyrazolo[1,5-a]pyridine]: 1000 to 10000 nM. Consider `CC(C)(O)C#Cc1cccn2ncc(-c3ccc(-c4cnn(C(F)F)c4)cc3)c12` [Compound P-0370, 4-(3-(4-(1-(difluoromethyl)-1H-pyrazol-4-yl)phenyl)pyrazolo[1,5-a]pyridin-4-yl)-2-methylbut-3-yn-2-ol], for which the concentration for half-maximal inhibition (IC50) fell in the range of 0.1 to 100 nM. Regarding `Cn1ncc2cc(-c3cnn4cccc(N5CCC(C)(C#N)CC5)c34)ccc21` [Compound P-0403, 4-methyl-1-(3-(1-methyl-1H-indazol-5-yl)pyrazolo[1,5-a]pyridin-4-yl)piperidine-4-carbonitrile], the IC50 lay within 0.1 to 100 nM. The molecule `CC(=O)N1CC=C(c2cccc3ncc(-c4ccc(-c5cnn(C)c5)cc4)n23)CC1` [Compound P-0436, 1-(4-(3-(4-(1-methyl-1H-pyrazol-4-yl)phenyl)imidazo[1,2-a]pyridin-5-yl)-3,6-dihydropyridin-1(2H)-yl)ethan-1-one] yielded an IC50 of 1000 to 10000 nM. Molecule `Cn1ncc2cc(-c3cnc4cccc(C5=CCC(C#N)CC5)n34)ccc21` (centres unmarked) [Compound P-0367, 4-(3-(1-methyl-1H-indazol-5-yl)imidazo[1,2-a]pyridin-5-yl)cyclohex-3-ene-1-carbonitrile] showed an IC50 of 0.1 to 100 nM. The molecule `CN1CCC(Oc2cccc3ncc(-c4ccc(-c5cnn(C)c5)cc4)n23)CC1` [Compound P-0439, 3-(4-(1-methyl-1H-pyrazol-4-yl)phenyl)-5-((1-methylpiperidin-4-yl)oxy)imidazo[1,2-a]pyridine] gave an IC50 of 0.1 to 100 nM. `Cc1nn(C)c2ccc(-c3cnc4[nH]ccc4c3C3=CCC(C#N)CC3)cc12` (centres unmarked) [Compound P-0342, 4-(5-(1,3-dimethyl-1H-indazol-5-yl)-1H-pyrrolo[2,3-b]pyridin-4-yl)cyclohex-3-ene-1-carbonitrile] yielded a concentration for half-maximal inhibition (IC50) of 0.1 to 100 nM. As for `CCOC(=O)C1CC=C(c2cccc3ncc(-c4ccc(-c5cnn(C)c5)cc4)n23)CC1` (centres unmarked) [Compound P-0420, ethyl 4-(3-(4-(1-methyl-1H-pyrazol-4-yl)phenyl)imidazo[1,2-a]pyridin-5-yl)cyclohex-3-ene-1-carboxylate], the concentration for half-maximal inhibition (IC50) lay within 1000 to 10000 nM. `Cn1cc(-c2ccc(-c3cnc4cccc(NCc5ccccc5)n34)cc2)cn1` [Compound P-0389, N-benzyl-3-(4-(1-methyl-1H-pyrazol-4-yl)phenyl)imidazo[1,2-a]pyridin-5-amine] registered an IC50 of 1000 to 10000 nM.

Turning to `Cn1cc(-c2ccc(-c3cnc4cccc(NCCCO)n34)cc2)cn1` [Compound P-0390, 3-((3-(4-(1-methyl-1H-pyrazol-4-yl)phenyl)imidazo[1,2-a]pyridin-5-yl)amino)propan-1-ol], the 50% inhibitory concentration (IC50) fell in the range of 100 to 1000 nM.
